# Data reported in US12240811B2, “N-heterocyclic five-membered ring-containing capsid protein assembly inhibitor, pharmaceutical composition and uses thereof” (CHIA TAI TIANQING PHARMACEUTICAL GROUP CO., LTD., priority 2019, dated 2025).
# Assays:
# HBV DNA in HepAD38 cells = experiment: In vitro cell HBV DNA inhibitory activity in HepAD38 cells; format: cell-based; details: Hepatitis B virus, 144 h, 6 days treatment, intracellular capsid HBV DNA by qPCR, read-out: EC50, anti-HBV activity in HepAD38 cells
# Description: A bottle of HepG2.2.15 (Wuhan Institute of Virology) or HepAD38 cells in good exponential growth state was taken, washed once by adding 5 mL PBS, and then thereto was added 3 mL trypsin. After digesting at room temperature for 5 min, 2 mL trypsin was discarded, and then the sample was placed in a cell culture incubator and digested for 10 min. The cells were taken out and observed under a microscope (whether the cells were individually round and there was no adhesion between the cells). 10 mL complete medium was added to terminate the digestion. After pipetting into a single cell suspension, 10 μL of the cell suspension was taken out for cell counting with a cell counter, and then diluted with a complete medium and adjusted to a cell density of 1*10^5 cells/mL. […]
# Compounds dissolved in DMSO were subjected to two-fold gradient dilution (10 concentrations in total) with complete medium. […] After lysing at room temperature for 10 min, DNA was extracted, and HBV DNA in the intracellular viral capsid was measured by real-time fluorescence quantitative PCR. The inhibition rate was calculated based on the Ct value, and the EC50 value was calculated by the four-parameter method.
# [1] = In vitro cytotoxicity (CCK-8); format: cell-based; details: human, HepG2.2.15 cells
# Description: A bottle of HepG2.2.15 cells (Wuhan Institute of Virology) in good exponential growth state was taken, washed once by adding 5 mL PBS, and then thereto was added 2 mL trypsin. The sample was digested in a cell culture incubator, and taken out from time to time and observed under a microscope. When the cells just fell off, 1 mL trypsin was discarded. The residual liquid was placed in a cell culture incubator at 37° C. and digested for 8-15 min. The cells were taken out and observed under a microscope (whether the cells were individually round and there was no adhesion between the cells). 5 mL MEM medium was added for cell resuspension. The cells were then subjected to cell counting with a cell counter, diluted with a complete medium, and adjusted to a cell density of 2*10^5 cells/mL. Then the cells were seeded at 100 μL/well in a 96-well plate with a multi-channel pipette (the 96-well plate was coated with 50 μg/mL Collagen I solution in advance), and cultured in a constant temperature CO2 incubator for 24 h. The cells were treated by drug administration, and fresh medium containing the compound was used to replace the spent medium every 3 days. […] After 1 to 2 hours, the absorbance was detected with microplate reader at 450 nm, and the inhibition rate and the CC50 were calculated.
# CYP 2D6 = CYP 2D6 (Homo sapiens (Human), UniProt P10635); experiment: CYP450 enzyme inhibition study, CYP 2D6; format: in vitro ADME
# Description: (§1) 500 μL of a final incubation system contains 50 μL of human liver microsomes (protein concentration: 0.2 mg/mL, Corning), 1 μL of mixed CYP450 specific substrates (CYP1A2, CYP 2B6, CYP 2C9, CYP2C19, CYP 2D6, and CYP 3A4), 398 μL PBS buffer (pH7.4), 1 μL specific positive inhibitor (positive control group) or the test compound (formulated with acetonitrile), and 50 μL NADPH+MgCl2. Duplicate incubation systems of 0.5 mL each were formulated for each CYP450 subtype. A total volume of 450 μL of a uniformly mixed solution of the substrate and the enzyme was formulated in each tube, and the solution and NADPH were pre-incubated at 37° C. for 5 minutes, respectively. Then 50 μL of the mixed solution of NADPH+MgCl2 was added for reaction. 50 μL of the reaction solution was taken out at 30 minutes, and the reaction was terminated with 300 μL of ice acetonitrile containing an internal standard. In addition, two control groups of 500 μL each without NADPH were prepared in parallel as a negative control group.
# (§2) Sample pre-treatment: To 50 μL of the incubated sample was added 300 μL of ice acetonitrile containing an internal standard, and then precipitated. After vortexing for 5 minutes, the sample was centrifugated (12000 rpm, 4° C.) for 10 minutes. 75 μL of the supernatant was pipetted, and 75 μL of ultrapure water was added thereto for dilution and mixed uniformly. […]
# CYP 2C9 = CYP 2C9 (Homo sapiens (Human), UniProt P11712); experiment: CYP450 enzyme inhibition study, CYP 2C9; format: in vitro ADME; details: human liver microsomes; read-out: Subtypes IC50 2C9
# Description: as §1, §2
# [2] = Plasma protein binding assay, dog plasma; format: in vitro ADME
# Description: Formulation of plasma sample: 495 μL of blank plasmas of the corresponding species (mouse, rat, dog, monkey, and human) were drawn respectively, and thereto was added 5 μL of the corresponding test compound solution or positive control to give plasma sample solutions having a plasma drug concentration of the compound of 1 μM, and 10 μM, respectively (formulated with acetonitrile).
# The pre-treated dialysis membrane was placed in a high-throughput equilibrium dialysis device, and 100 μL of the plasma sample solution and PBS buffer solution were drawn and added respectively to both sides of the dialysis membrane (sample side and buffer side) (n=3). After the equilibration device was sealed with a film, it was incubated at 37° C. overnight (100 rpm). After dialysis equilibrium was reached, 50 μL samples were drawn from the sample side and the buffer side, respectively, and the reaction was terminated by adding ice acetonitrile containing an internal standard.
# as §2, with “plasma-side” for “incubated”, “450” for “300”, “uniformly. 1 μL of the resulting solution was injected for analysis.” for “uniformly.”
# Chain of CYP 2D6 (P10635 whole entry): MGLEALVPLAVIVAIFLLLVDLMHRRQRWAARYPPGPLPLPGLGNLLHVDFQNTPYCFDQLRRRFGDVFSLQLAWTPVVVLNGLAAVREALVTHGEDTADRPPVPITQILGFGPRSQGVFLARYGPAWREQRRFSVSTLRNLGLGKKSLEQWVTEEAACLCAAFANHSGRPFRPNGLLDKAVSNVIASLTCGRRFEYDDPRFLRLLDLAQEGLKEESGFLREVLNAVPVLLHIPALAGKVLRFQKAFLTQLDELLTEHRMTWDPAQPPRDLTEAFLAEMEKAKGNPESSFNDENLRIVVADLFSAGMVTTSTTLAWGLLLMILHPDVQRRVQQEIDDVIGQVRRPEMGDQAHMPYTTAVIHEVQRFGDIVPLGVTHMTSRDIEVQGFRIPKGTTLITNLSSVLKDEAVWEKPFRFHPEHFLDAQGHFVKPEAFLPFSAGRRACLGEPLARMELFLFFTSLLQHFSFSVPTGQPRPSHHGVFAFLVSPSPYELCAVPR
# Chain of CYP 2C9 (P11712 whole entry): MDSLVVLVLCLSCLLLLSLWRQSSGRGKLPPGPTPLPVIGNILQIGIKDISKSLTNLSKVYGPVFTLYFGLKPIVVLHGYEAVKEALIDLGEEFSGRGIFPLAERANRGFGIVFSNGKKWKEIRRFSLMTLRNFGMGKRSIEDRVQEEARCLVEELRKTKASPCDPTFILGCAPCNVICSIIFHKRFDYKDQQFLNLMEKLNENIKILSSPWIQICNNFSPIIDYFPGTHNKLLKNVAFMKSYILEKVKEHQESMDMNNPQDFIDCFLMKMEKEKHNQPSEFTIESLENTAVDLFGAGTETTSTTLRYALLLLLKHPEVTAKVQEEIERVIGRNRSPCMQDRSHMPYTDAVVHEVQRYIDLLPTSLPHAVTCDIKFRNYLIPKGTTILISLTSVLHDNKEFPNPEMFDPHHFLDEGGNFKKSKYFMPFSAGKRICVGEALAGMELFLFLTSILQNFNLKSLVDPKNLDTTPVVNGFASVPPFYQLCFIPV
structure (smiles),measurement,setting,value
"Cc1[nH]c(C(=O)C(=O)N[C@@H](C)C(F)(F)F)c(C)c1C(=O)Nc1ccc(F)c(C#N)c1 [Example 1, (S)—N-(3-cyano-4-fluorophenyl)-2,4-dimethyl-5-(2-oxo-2-((1,1,1-trifluoroprop-2-yl)amino)acetyl)-1H-pyrrole-3-carboxamide]",EC50,HBV DNA in HepAD38 cells,0.024 µM
same,CC50 at 6 days,[1],> 100 µM
same,IC50,CYP 2D6,54 µM
same,IC50,CYP 2C9,> 200 µM
same,Binding rate (%) Dog,[2]; 1 μM,94.0%
same,Binding rate (%) Dog,[2]; 10 μM,93.9%
